The values that follow come from patent US9718790B2, “Triazine derivative and pharmaceutical composition having an analgesic activity comprising the same” (SHIONOGI & CO., LTD., priority 2010, dated 2017).

A value given as a limit tells only on which side of the number the result lay.

One series concerns serum. In words: Protein binding test (equilibrium dialysis, serum). It counts as in vitro ADME. Conditions: 37° C., 24 hours, 2 μg/mL. The method, then:
The unbound fraction the present compound in serum was measured using serum of various species.
The reactive conditions are as follows: Evaluation method, Equilibrium dialysis; Reaction time, 24 hours; Reaction temperature, 37° C.; Concentration of the present compound, 2 μg/mL.
The test solution was added to each serum and the mixture was agitated to prepare the serum samples at the concentration mentioned above. Each serum sample was added into one side or the cell and phosphate buffered saline (PBS) was added into the other side to perform equilibrium dialysis at 37° C. for 24 hours. Then, the concentration of the compounds in the samples that were obtained from both sides was measured by LC/MS/MS.
(Result) The ratio of PBS concentration to serum concentration is expressed as unbound fraction.

For the next series, the target named is CYP2C9 (Homo sapiens (Human), UniProt P11712). As to the kind of experiment: CYP inhibition test, pooled human hepatic microsome, tolbutamide methyl-hydroxylation. It counts as in vitro ADME. The conditions noted are these: substrate tolbutamide. The method, then: (§1) Using commercially available pooled human hepatic microsome, and employlng, as markers, 7-ethoxyresorufin O-deethylation (CYP1A2), tolbutamide methyl-hydroxylation (CYP2C9), mephenyloin 4′-hydroxylation (CYP2C19), dextromethorphan O-demethylation (CYP2D6), and terfenedine hydroxylation as typical substrate metabolism reactions of human main five CYP enzyme forms (CYP1A2, 2C9, 2C19, 2D6, 3A4), an inhibitory degree of each metabolite production amount by a test compound was assessed.
Sequence of CYP2C9 (P11712 whole entry): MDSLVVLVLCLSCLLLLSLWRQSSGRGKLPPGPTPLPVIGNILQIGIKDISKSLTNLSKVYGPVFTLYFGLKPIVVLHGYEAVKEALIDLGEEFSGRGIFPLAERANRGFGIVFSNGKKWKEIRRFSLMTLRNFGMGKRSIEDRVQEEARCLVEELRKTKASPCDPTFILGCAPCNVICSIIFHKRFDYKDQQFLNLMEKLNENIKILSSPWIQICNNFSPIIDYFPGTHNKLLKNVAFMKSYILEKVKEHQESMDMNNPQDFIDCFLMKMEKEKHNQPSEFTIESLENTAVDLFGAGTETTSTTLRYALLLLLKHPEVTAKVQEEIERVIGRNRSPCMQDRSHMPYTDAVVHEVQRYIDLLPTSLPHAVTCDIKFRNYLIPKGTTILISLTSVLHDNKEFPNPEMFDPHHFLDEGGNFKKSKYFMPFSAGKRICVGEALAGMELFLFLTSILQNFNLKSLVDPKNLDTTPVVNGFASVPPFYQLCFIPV
(§2) The reaction conditions were as follows: substrate, 0.5 μmol/L ethoxyresorufin (CYP1A2), 100 μmol/L tolbutamide (CYP2C9), 50 μmol/L S-mephenitoin (CYP2C19), 5 μmol/L dextromethorphan (CYP2D6), 1 μmol/L terfenedine (CYP3A4) reaction time, 15 minutes; reaction temperature, 37° C; enzyme, pooled human hepatic microsome 0.2 mg protein/mL; test drug concentration, 1.0, 5.0, 10, 20 μmol/L (four points).
(§3) Each five kinds of substrates, human hepatic microsome, or a test drug in 50 mmol/L Hepes buffer as a reaction solution was added to a 96-well plate at the composition as described above, NADPH, as a cofactor was added to initiate metabolism reactions as markers and, after the incubation at 37° C. for 15 minutes, a methanol/acetonitrile=1/1 (v/v) solution was added to stop the reaction. After the centrifugation at 3000 rpm for 15 minutes, resorufin (CYP1A2 metabolite) in the supernatant was quantified by a fluorescent multilabel counter and tributamide hydroxide (CYP2CP metabolite), mephenyloin 4′ hydroxide (CYP2C19 metabolite), […] (CYP2D6 metabolite), and terfenadine alcohol (CYP3A4 metabolite) were quantified by LC/MS/MS.

The target in a further series is CYP2D6 (Homo sapiens (Human), UniProt P10635). In words: CYP inhibition test, pooled human hepatic microsome, dextromethorphan O-demethylation. The series is classed as in vitro ADME. Conditions: substrate dextromethorphan. The procedure:
as §1, §2, §3

Series [1] is described as follows: Solubility test (1% DMSO, artificial intestinal juice pH 6.8). It counts as physicochemical. The conditions noted are these: artificial intestinal juice pH 6.8 with 1% DMSO, 25 °C, fassgf or other biorelevant, kinetic from dmso stock, artificial intestinal juice pH 6.8, 25 degrees Celsius. The method, then: 10 mmol/L compound solution was prepared using DMSO, and then 6 μL of the compound solution was added to 594 μL of artificial intestinal juice in pH 6.8 (to 250 mL of 0.2 mol/L potassium dihydrogen phosphate reagent solution was added 118 mL of 0.2 mol/L NaOH reagent solution and water to provide a final volume of 1000 mL). After standing at 25 degrees Celsius for 16 hours, the mixed solution was filtrated with suction. The filtrate was diluted twice with methanol/water ( 1/1) and then a concentration in the filtration was measured with HPLC or LC/MS/MS by the absolute calibration method.

A further series deals with CYP2C19 (Homo sapiens (Human), UniProt P33261). In words: CYP inhibition test, pooled human hepatic microsome, mephenytoin 4'-hydroxylation. The series is classed as in vitro ADME. The conditions noted are these: substrate S-mephenitoin. The procedure: as §1, §2, §3
Sequence of CYP2C19 (P33261 whole entry): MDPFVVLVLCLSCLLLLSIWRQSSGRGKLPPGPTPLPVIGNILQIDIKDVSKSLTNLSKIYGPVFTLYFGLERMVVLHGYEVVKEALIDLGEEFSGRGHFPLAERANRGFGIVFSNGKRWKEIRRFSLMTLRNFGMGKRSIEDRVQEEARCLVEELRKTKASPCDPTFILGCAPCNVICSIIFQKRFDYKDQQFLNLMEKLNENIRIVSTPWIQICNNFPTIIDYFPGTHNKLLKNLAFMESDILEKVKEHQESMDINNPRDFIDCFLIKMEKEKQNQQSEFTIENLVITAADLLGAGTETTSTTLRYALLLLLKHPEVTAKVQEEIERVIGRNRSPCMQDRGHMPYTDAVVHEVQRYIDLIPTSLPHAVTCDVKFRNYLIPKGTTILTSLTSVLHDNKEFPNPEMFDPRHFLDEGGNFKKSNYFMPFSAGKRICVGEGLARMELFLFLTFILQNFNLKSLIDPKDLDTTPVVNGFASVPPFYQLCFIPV
The target of another series is rat P2X3 receptor (Rattus norvegicus (Rat), UniProt P49654). In words: Evaluation of rat P2X3 receptor inhibitory activity (Fluo-3 calcium fluorescence, FDSS 3000, ATP stimulation). It counts as cell-based. The method, then: Rat P2X3 receptor gene (GenBank accession number NM_031075) was expressed in C6BU-1 cell. The cells stably expressing rat P2X3 were seeded in a 96-well microtiter plate at a concentration of 8000 cells/well and cultured in the medium (8.3% fetal bovine serum. 8.3% horse serum, 1% antibiotic and antifungal in DMEM) for one day at 37° C. under 5% carbon dioxide atmosphere. In transiently expressing system, the C6BU-1 cells were seeded in a […] at a concentration of 2500 cells/well and cultured in the medium for one day at 37° C. under 5% carbon dioxide atmosphere. The plasmid was transfected into the cells using transfection reagent FuGENE6 (Roche). The transfected cells were cultured in the medium for one day at 37° C. under 5% carbon dioxide atmosphere. […] Measurement of fluorescence intensity by FDSS 3000 was started, and 40 μL of DMSO solutions containing different concentrations of the test compound as prepared by dilution with dilution buffer (20 mM HEPES, 137 mM NaCl, 2.7 mM KCl, 0.9 mM MgCl2, 5.0 mM CaCl2, 5.6 mM D-glucose, 2.5 mM probenecid, 0.1% Pluronic F-127, pH 7.5) were dispensed to each well through the built-in automatic dispenser. Five minutes after, […] ATP solution (50 μL) prepared by dilution with the dilution buffer was dispensed through the built-in automatic dispenser, and the measurement of fluorescence intensity was continued for 3 min. For each well, the specific maximum fluorescence intensity was calculated as the ratio of the maximum fluorescence intensity after addition of the ATP solution to the fluorescence intensity at the starting of the measurement. […] FDSS software (Hamamatsu Photonics K.K.) was used for calculation of the specific maximum fluorescence intensity. IC50 was calculated using Microsoft Excel (Microsoft Corporation) and XLfit (idbs Ltd.).
Sequence of rat P2X3 receptor (P49654 whole entry): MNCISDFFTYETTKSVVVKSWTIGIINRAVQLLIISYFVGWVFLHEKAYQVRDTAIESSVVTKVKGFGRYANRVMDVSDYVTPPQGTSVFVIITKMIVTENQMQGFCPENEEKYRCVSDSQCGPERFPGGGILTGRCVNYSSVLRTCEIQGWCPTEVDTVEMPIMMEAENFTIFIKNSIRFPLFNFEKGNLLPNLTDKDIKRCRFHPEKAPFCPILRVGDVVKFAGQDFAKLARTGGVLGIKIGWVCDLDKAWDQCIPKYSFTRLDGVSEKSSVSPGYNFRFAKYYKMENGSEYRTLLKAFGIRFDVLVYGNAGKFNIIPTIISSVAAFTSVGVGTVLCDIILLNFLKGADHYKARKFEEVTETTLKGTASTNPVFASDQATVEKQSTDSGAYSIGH

Sequence of CYP2D6 (P10635 whole entry): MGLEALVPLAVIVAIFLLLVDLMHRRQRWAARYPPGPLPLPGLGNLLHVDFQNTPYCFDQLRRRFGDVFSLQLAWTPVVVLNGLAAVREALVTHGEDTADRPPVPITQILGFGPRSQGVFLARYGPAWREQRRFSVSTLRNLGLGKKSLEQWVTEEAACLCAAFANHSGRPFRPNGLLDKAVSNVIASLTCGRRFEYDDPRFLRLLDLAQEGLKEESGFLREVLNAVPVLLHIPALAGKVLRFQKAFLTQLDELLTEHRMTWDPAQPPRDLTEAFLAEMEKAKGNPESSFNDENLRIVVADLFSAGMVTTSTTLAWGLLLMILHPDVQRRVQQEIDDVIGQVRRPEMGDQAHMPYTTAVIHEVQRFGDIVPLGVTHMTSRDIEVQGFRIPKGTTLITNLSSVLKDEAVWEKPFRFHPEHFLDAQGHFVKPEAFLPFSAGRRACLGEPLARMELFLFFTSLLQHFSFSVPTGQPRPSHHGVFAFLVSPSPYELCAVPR

On to `O=c1[nH]/c(=N\c2ccc(Oc3ccon3)cc2)n(Cc2ccc(Cl)cc2)c(=O)n1CC(CO)CO` [Compound I-2291], for which, in the series on serum, the “unbound fraction (ratio of PBS concentration to serum concentration)” value is listed as 4.5%. For the same molecule, the IC50 at CYP2C9 is greater than 20 µM; on CYP2D6, greater than 20 µM; on CYP2C19, greater than 20 µM; at rat P2X3 receptor, 0.003 µM. This molecule showed a solubility at 16 h in series [1] greater than 50 µM.

As to `CCn1c(=O)[nH]/c(=N\c2ccc(Oc3ccnc(C(=O)O)c3)cc2)n(Cc2ccc(Cl)cc2)c1=O` [Compound I-1788], the IC50 at CYP2C9 is greater than 20 µM; on CYP2D6, greater than 20 µM; on CYP2C19, greater than 20 µM; at rat P2X3 receptor it was 0.005 µM. Moreover, the solubility at 16 h in series [1] is greater than 50 µM.

In the case of `C[C@@H](Cn1c(=O)[nH]/c(=N\c2ccc(OCC3CC3)cc2)n(Cc2ccc(Cl)cc2)c1=O)C(=O)O` [Compound I-0837], in the series on serum, the “unbound fraction (ratio of PBS concentration to serum concentration)” value stood at 2.1%. The 50% inhibitory concentration (IC50) on CYP2C9 was greater than 20 µM; against CYP2D6, greater than 20 µM; at CYP2C19 it was greater than 20 µM; on rat P2X3 receptor it was 0.019 µM. This molecule also yielded a solubility at 16 h in series [1] greater than 50 µM.
